Measurements: publication PMC3269340, “Pharmacokinetics of memantine in rats and mice” (PLoS Currents, 2012)

Assays:
YAC128 mice = conditions: cited from earlier work
[1] = test system: Alzheimer's disease patients; conditions: cited from earlier work
[2] = Stability in mouse liver microsomes; assay type: in vitro ADME; conditions: 0.5 mg/mL pooled male microsomes, read-out: Intrinsic Clearance (Cl int) Liver Microsomes
Protocol: Memantine (1 μM) was incubated in 0.5 mg/mL of pooled male rat, mouse, or human liver microsomes (obtained commercially), in 0.1 M phosphate buffer at 37 °C. After pre-warming the mixture for 5 min, reactions were initiated by the addition of NADPH (1 mM). Aliquots (80 μL) were taken at 0, 5, 10, 20 and 40 min, and the reaction immediately terminated by adding into 80 μL of acetonitrile containing an analytical internal standard (IS). Samples were centrifuged and the supernatant fractions analyzed by LC-MS/MS with multiple reaction monitoring (MRM). All incubations were performed in duplicate. Testosterone was used as the positive control. The MRM area response ratio of the analyte over IS for Time=0(control) was set to 100%, the relative decrease in MRM area ratio intensity over time against that of the control (percent parent decrease) was used to determine the half-life (t1/2) of memantine in the incubation. Half-life values were calculated from the relationship:
t1/2 (min) = -0.693/λ, where λ is the slope of the Ln concentration vs time curve. The intrinsic clearance (Clint) was calculated as:
Clint = (0.693 x incubation volume (μL))/(t½ (min) x mg of microsomal protein)

OATP2B1 = target: T1, OATP2B1 (Homo sapiens, UniProt O94956); experiment: Direct uptake transporter assay, OATP2B1; assay type: in vitro ADME; conditions: for Accumulation in transporter transfected cells: OATP2B1-transfected cells; for Accumulation in parental cells: parental MDCKII cells (OATP2B1 line)
T1 construct: expressed in transfected cells; host or cells: MDCKII cells
T1 sequence (O94956 1-709): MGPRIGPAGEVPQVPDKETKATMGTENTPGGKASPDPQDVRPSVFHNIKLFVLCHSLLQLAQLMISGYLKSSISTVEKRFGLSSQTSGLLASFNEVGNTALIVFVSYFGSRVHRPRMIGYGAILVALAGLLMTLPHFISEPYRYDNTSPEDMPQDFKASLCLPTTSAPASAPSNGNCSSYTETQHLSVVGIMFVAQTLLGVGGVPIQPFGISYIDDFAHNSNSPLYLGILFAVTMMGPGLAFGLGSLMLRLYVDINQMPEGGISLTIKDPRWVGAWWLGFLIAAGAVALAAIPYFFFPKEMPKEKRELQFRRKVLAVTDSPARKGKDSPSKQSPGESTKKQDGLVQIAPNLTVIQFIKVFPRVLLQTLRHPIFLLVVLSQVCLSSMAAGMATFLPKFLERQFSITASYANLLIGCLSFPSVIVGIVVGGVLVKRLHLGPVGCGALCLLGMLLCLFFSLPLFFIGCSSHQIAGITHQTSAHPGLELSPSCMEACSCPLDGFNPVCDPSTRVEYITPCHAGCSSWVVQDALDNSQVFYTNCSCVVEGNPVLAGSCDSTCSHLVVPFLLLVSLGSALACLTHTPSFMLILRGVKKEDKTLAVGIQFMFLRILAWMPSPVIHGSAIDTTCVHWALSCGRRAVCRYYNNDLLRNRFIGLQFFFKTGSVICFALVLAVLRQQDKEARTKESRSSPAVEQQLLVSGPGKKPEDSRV
Protocol: (§1) To determine whether memantine is a substrate of the human OATP2B1 (OATP-B), OCT1, OCT2, OAT3, PEPT1, PEPT2 uptake transporters.
(§2) The potential for memantine to be a substrate of an uptake transporter was determined directly by comparing the uptake of memantine into cells expressing the selected uptake transporter with its uptake into control cells. Memantine was added to transporter-expressing and control cells at two concentrations (PEPT1 and PEPT2 100 and 300 µM, OCT1 and OCT2 50 and 100 µM, OATP2B1 100 and 300 µM), and incubated with cells for 2 and 20 min at 37±1°C (75 µL final incubation volume). […] Incubations were carried out as described in the indirect uptake transporter assays. The concentration of memantine was determined by LC-MS/MS.

human OCT1 = target: T2, human OCT1 (Homo sapiens, UniProt O15245); experiment: Direct uptake transporter assay, OCT1; assay type: in vitro ADME; conditions: for Accumulation in transporter transfected cells: OCT1-transfected cells; for Accumulation in parental cells: parental CHO cells (OCT1 line)
T2 construct: expressed in transfected cells; host or cells: CHO cells
T2 sequence (O15245 1-554): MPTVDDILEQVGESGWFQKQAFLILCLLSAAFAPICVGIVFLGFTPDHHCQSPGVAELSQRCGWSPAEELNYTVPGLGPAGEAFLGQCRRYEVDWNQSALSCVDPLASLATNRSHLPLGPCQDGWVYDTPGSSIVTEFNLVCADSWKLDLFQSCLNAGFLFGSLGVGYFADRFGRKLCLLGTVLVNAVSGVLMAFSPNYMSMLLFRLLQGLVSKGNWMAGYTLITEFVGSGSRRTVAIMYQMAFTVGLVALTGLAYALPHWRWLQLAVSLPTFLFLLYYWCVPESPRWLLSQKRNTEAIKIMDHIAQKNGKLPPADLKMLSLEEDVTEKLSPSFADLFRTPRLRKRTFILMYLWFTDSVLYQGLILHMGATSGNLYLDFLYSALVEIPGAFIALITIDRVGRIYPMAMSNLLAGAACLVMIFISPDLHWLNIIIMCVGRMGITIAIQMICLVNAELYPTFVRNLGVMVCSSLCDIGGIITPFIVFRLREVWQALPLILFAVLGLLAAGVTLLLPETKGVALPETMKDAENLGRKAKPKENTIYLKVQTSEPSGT
Protocol: as §1, §2

For `CC12CC3CC(C)(C1)CC(N)(C3)C2` [memantine], the CREB phosphorylation deficit (YAC128 mice; YAC128 mice, 1 mg/kg in drinking water for 2 months, age 4 months) is listed as “reversed the deficit in CREB phosphorylation”, the rotarod learning task (YAC128 mice; YAC128 mice, 1 mg/kg in drinking water for 2 months) is listed as “improvement in a rotarod learning task” and the “motor performance and neuropathology compared to vehicle-treated mice” value (YAC128 mice; YAC128 mice, high-dose (30 mg/kg)) is listed as “worsened motor performance and neuropathology”. The “HTT aggregate formation and TCP-1 expression levels” value (YAC128 mice; YAC128 mice, high-dose) was “decrease HTT aggregate formation and TCP-1 expression levels”, the “striatal levels of Rhes protein” value (YAC128 mice; YAC128 mice, low-dose (not high-dose)) was “decreased striatal levels of Rhes protein” and the “neuropathology and motor deficits” value (YAC128 mice; aged (12 months) YAC128 mice, low-dose) was “rescue neuropathology as well as motor deficits”. For the same compound, the “efficacy in dementia patients” value ([1]; 10 mg single daily dose for 12 weeks) was “demonstrated efficacy”, the “efficacy in moderate to severe AD” value ([1]; humans, 10 mg twice daily, 6-month study) was “efficacious” and the microsomal CLint at 1 μM [2] was under 13.9 µL/min/mg. The “substrate of OATP2B1 uptake transporter” value (OATP2B1) was “appeared to be a substrate”, the “accumulation in transporter-transfected cells higher than in parental cells” value (OATP2B1; OATP2B1) was over 1.5 fold and the “Highest Fold Activation” value (OATP2B1; OATP2B1, 300 µM, 20 min) was 2.1 (300 µM, 20 min). The “Accumulation in transporter transfected cells” value (OATP2B1; 2 min, 100 µM) was 11317 pmol/mg, the “Accumulation in transporter transfected cells” value (OATP2B1; 2 min, 300 µM) was 18296 pmol/mg and the “Accumulation in transporter transfected cells” value (OATP2B1; 20 min, 100 µM) was 20820 pmol/mg. The “Accumulation in transporter transfected cells” value (OATP2B1; 20 min, 300 µM) was 45866 pmol/mg, the “Accumulation in parental cells” value (OATP2B1; 2 min, 100 µM) was 6409 pmol/mg and the “Accumulation in parental cells” value (OATP2B1; 2 min, 300 µM) was 10891 pmol/mg. For the same compound, the “Accumulation in parental cells” value (OATP2B1; 20 min, 100 µM) was 10889 pmol/mg, the “Accumulation in parental cells” value (OATP2B1; 20 min, 300 µM) was 21496 pmol/mg and the “active transport by OCT1” value (human OCT1) was “not actively transported”. The “Highest Fold Activation” value (human OCT1; OCT1) was “Not observed”, the “Accumulation in transporter transfected cells” value (human OCT1; 2 min, 50 µM) was 3818 pmol/mg and the “Accumulation in transporter transfected cells” value (human OCT1; 2 min, 100 µM) was 5878 pmol/mg. For the same compound, the “Accumulation in transporter transfected cells” value (human OCT1; 20 min, 50 µM) was 5540 pmol/mg, the “Accumulation in transporter transfected cells” value (human OCT1; 20 min, 100 µM) was 9190 pmol/mg and the “Accumulation in parental cells” value (human OCT1; 2 min, 50 µM) was 3894 pmol/mg. For the same compound, the “Accumulation in parental cells” value (human OCT1; 2 min, 100 µM) was 6337 pmol/mg, the “Accumulation in parental cells” value (human OCT1; 20 min, 50 µM) was 5672 pmol/mg and the “Accumulation in parental cells” value (human OCT1; 20 min, 100 µM) was 9576 pmol/mg.
